Assay results: patent US20060024392A1, “Compositions and methods for enhancing the effectiveness of a chemotherapeutic agent” (priority 2004, published 2006)

Tested on: NCM460 normal colon cells
Experiment: Sulforhodamine B (SRB) cell growth assay in NCM460 normal colon cells
Format: cell-based, human
Procedure: HT-29, a cell line derived from colorectal adenocarcinoma (ATCC, HTB 38), grows in McCoy's 5A medium (Biowhittaker, Inc. Walkersville, Md.). NCM460, a cell line derived from a normal human colon (InCell Corp. San Antonio, Tex.), grows in M3 Base media (InCell Corp. San Antonio, Tex.).
Both cell lines are kept at 37° C. and 5% CO2 atmosphere. Both media are supplemented with 10% fetal bovine serum (FBS, Biowhittaker, Inc. Walkersville, Md.).
Cells are fixed in situ by the gentle addition of 50 μl of cold 50% (w/v) TCA (final concentration, 10% TCA) and incubated for 60 minutes at 4° C. The supernatant is discarded, and the plates are washed five times with tap water and air dried. Sulforhodamine B (SRB) solution (100 μl) at 0.4% (w/v) in 1% acetic acid is added to each well, and plates are incubated for 10 minutes at room temperature. After staining, unbound dye is removed by washing five times with 1% acetic acid and the plates are air dried. Bound stain is subsequently solubilized with 100 μl 10 mM trizma base for 5 minutes, and the absorbance at wavelength of 490 nm was spectrophotometrically measured using a microplate reader Elx800 (Bio-Tek instruments, Inc.).
Cells were seeded in 96-well cluster tissue culture plates (Costar), containing 100 μl complete growth medium per well at densities of 5,000 cells per well. Incubated at 37° C. in a humidified tissue culture incubator. After 24 Hour, 100 μl complete medium containing 5 half-log dilutions of the 5FU from 2*10^−4 to 2*10^−6 M was added into each well (final concentrations are from 10^−4 to 10^−6 M). Six replicates were used for each concentration. Media containing 0.125% DMSO was used as control. After 48 hours of incubation with 5FU in medium, cell proliferation was assessed using the SRB assay.
Percentage growth (Growth%) is calculated as: [(Ti−Tz)/(C−Tz)]×100 [absorbance measurements at time zero (Tz), control growth (C), and test growth in the presence of drug at the different concentration levels (Ti)].
Growth inhibition of 50% (GI50) is calculated from [(Ti−Tz)/(C−Tz)]×100=50, which is the drug concentration resulting in a 50% reduction in the net protein increase (as measured by SRB staining) in control cells during the drug incubation.
Similar method as Experiment 1 was used, except cells were exposed to 5FU at concentration ranging from 10^−4.5 to 10^−7 M. Media containing 0.01% DMSO was used as control. Lower concentrations were used since it was observed that 0.1% DMSO inhibited the growth of NCM460 cells. The experiment was repeated 5 times.
The protocol was the same as Experiment 3, except cells were exposed to 5FU at concentration ranging from 10^−5 to 10^−7 M with chokeberry ARE at concentration of 5, 15.6, 50 μg monomeric anthocyanin/ml growth media. […] Differences in response are most evident at the 5 FU concentration of 10^−6 M and ARE concentration of 15.6 μg monomeric anthocyanin/ml. In normal cells, there is no difference in the percent growth by 5FU with or without ARE, whereas in colon cancer cells, growth with 5FU alone was 80% of control, and further reduced to 40% with ARE and 5 FU.

O=c1[nH]cc(F)c(=O)[nH]1 [5FU, 5-fluorouracil]
Growth % (5FU 1.0E−4.5 M, experiment 1): 45.13% | OD (5FU 1.0E−4.5 M, experiment 1): 0.264 | Growth % (5FU 1.0E−4.5 M, experiment 2): 33.85% | OD (5FU 1.0E−4.5 M, experiment 2): 0.242 | Growth % (5FU 1.0E−4.5 M, experiment 3): 36.70% | OD (5FU 1.0E−4.5 M, experiment 3): 0.256 | Growth % (5FU 1.0E−5 M, experiment 1): 53.85% | OD (5FU 1.0E−5 M, experiment 1): 0.281 | Growth % (5FU 1.0E−5 M, experiment 2): 48.21% | OD (5FU 1.0E−5 M, experiment 2): 0.27 | Growth % (5FU 1.0E−5 M, experiment 3): 45.41% | OD (5FU 1.0E−5 M, experiment 3): 0.275 | Growth % (5FU 1.0E−5 M, experiment 4): 57.58% | OD (5FU 1.0E−5 M, experiment 4): 0.285 | Growth % (5FU 1.0E−5 M, experiment 5): 51.41% | OD (5FU 1.0E−5 M, experiment 5): 0.279 | Growth % (5FU 1.0E−5.5 M, experiment 1): 55.38% | OD (5FU 1.0E−5.5 M, experiment 1): 0.284 | Growth % (5FU 1.0E−5.5 M, experiment 2): 67.69% | OD (5FU 1.0E−5.5 M, experiment 2): 0.308 | Growth % (5FU 1.0E−5.5 M, experiment 3): 60.55% | OD (5FU 1.0E−5.5 M, experiment 3): 0.308 | Growth % (5FU 1.0E−5.5 M, experiment 4): 75.38% | OD (5FU 1.0E−5.5 M, experiment 4): 0.332 | Growth % (5FU 1.0E−5.5 M, experiment 5): 72.54% | OD (5FU 1.0E−5.5 M, experiment 5): 0.339 | Growth % (5FU 1.0E−6 M, experiment 1): 56.41% | OD (5FU 1.0E−6 M, experiment 1): 0.286 | Growth % (5FU 1.0E−6 M, experiment 2): 63.08% | OD (5FU 1.0E−6 M, experiment 2): 0.299 | Growth % (5FU 1.0E−6 M, experiment 3): 66.06% | OD (5FU 1.0E−6 M, experiment 3): 0.32 | Growth % (5FU 1.0E−6 M, experiment 4): 93.56% | OD (5FU 1.0E−6 M, experiment 4): 0.38 | Growth % (5FU 1.0E−6 M, experiment 5): 87.32% | OD (5FU 1.0E−6 M, experiment 5): 0.381 | Growth % (5FU 1.0E−6.5 M, experiment 1): 59.49% | OD (5FU 1.0E−6.5 M, experiment 1): 0.292 | Growth % (5FU 1.0E−6.5 M, experiment 2): 83.59% | OD (5FU 1.0E−6.5 M, experiment 2): 0.339 | Growth % (5FU 1.0E−6.5 M, experiment 3): 78.44% | OD (5FU 1.0E−6.5 M, experiment 3): 0.347 | Growth % (5FU 1.0E−6.5 M, experiment 4): 97.35% | OD (5FU 1.0E−6.5 M, experiment 4): 0.39 | Growth % (5FU 1.0E−6.5 M, experiment 5): 92.61% | OD (5FU 1.0E−6.5 M, experiment 5): 0.396 | Growth % (5FU 1.0E−7 M, experiment 4): 99.62% | OD (5FU 1.0E−7 M, experiment 4): 0.396 | Growth % (5FU 1.0E−7 M, experiment 5): 89.79% | OD (5FU 1.0E−7 M, experiment 5): 0.388
